Source: patent publication US20130023585A1, “Neuraminidase Inhibitors” (TSRL, INC., priority 2010, published 2013)
Read-outs that look alike come from different tables or passages of the source. Marks after values point to notes of the source that are not given here.

Experiments:
[1] = cited from earlier work
[2] = tested on: Influenza A/NWS/33 (H1N1); assay type: in vivo, BALB/c mice; conditions: for Survivors/Total: twice a day for 5 days, observed 21 days
[3] = mouse, in vivo, 10 mg/kg/day
[4] = tested on: California/04/2009 (H1N1); experiment: microbe, parasite or virus in culture; assay type: cell-based; conditions: Influenza A virus, read-out: 50% effective concentration (EC50)
in vivo = conditions: mouse
Sichuan/379/99 = experiment: microbe, parasite or virus in culture; assay type: cell-based; conditions: unidentified influenza virus, read-out: 50% effective concentration (EC50)
influenza virus = conditions: versus oseltamivir carboxylate; cited from earlier work
[5] = tested on: Solomon Islands/03/2006 (H1N1); experiment: microbe, parasite or virus in culture; assay type: cell-based; conditions: Influenza A virus, read-out: 50% effective concentration (EC50)
[6] = tested on: Flu A Vietnam/1203/2004 (H5N1) × A/Ann Arbor/6/60 (H1N1 core genes); experiment: microbe, parasite or virus in culture; assay type: cell-based; conditions: Influenza A virus, MDCK, read-out: 50% effective concentration (EC50)
Brisbane/10/2007 (H3N2) = experiment: microbe, parasite or virus in culture; assay type: cell-based; conditions: Influenza A virus, read-out: 50% effective concentration (EC50)
[7] = tested on: Flu A Duck/MN/1525/81 (H5N1); experiment: microbe, parasite or virus in culture; assay type: cell-based; conditions: Influenza A virus, H5N1, MDCK, read-out: 50% effective concentration (EC50)
Victoria/3/75 (H3N2) = experiment: microbe, parasite or virus in culture; assay type: cell-based; conditions: Influenza A virus, read-out: 50% effective concentration (EC50)
Brisbane/59/2007 (H1N1) = experiment: microbe, parasite or virus in culture; assay type: cell-based; conditions: Influenza A virus, read-out: 50% effective concentration (EC50)
NWS/33 (H1N1) = experiment: microbe, parasite or virus in culture; assay type: cell-based; conditions: Influenza A virus, read-out: 50% effective concentration (EC50)
Flu B Florida/4/2006 = experiment: microbe, parasite or virus in culture; assay type: cell-based; conditions: unidentified influenza virus, read-out: 50% effective concentration (EC50)
[8] = for Plasma concentration of Zanamivir: iv dose 1 mg/kg

Compound: CCOC(=O)C1=C[C@@H](OC(CC)CC)[C@H](NC(C)=O)[C@@H](NC(=N)N)C1
- oral bioavailability ([1]; oral): approximately 2%

Compound: CCC(CC)OC1C=C(C(=O)OC(OC(=O)C(N)C(C)C)c2ccccc2)CC(NC(=N)N)C1NC(C)=O (mixture of isomers) [GOC-Benzyl-Val]
- AUC (mouse, in vivo, iv, 1 mg/kg): 867 ± 110 ng·h/mL
- CL (mouse, in vivo, iv, 1 mg/kg): 31 mL/h
- T1/2 (mouse, in vivo, iv, 1 mg/kg): 1.15 h
- Vz (mouse, in vivo, iv, 1 mg/kg): 50.8 mL
- AUC (mouse, in vivo, po, 10 mg/kg): 1171 ± 357 ng·h/mL
- CL (mouse, in vivo, po, 10 mg/kg): 195 mL/h
- Cmax (mouse, in vivo, po, 10 mg/kg): 192 ± 48 ng/mL
- T1/2 (mouse, in vivo, po, 10 mg/kg): 7.14 h
- Tmax (mouse, in vivo, po, 10 mg/kg): 1.0 ± 0.0 h
- Vz (mouse, in vivo, po, 10 mg/kg): 2014 mL

Compound: CCC(CC)OC1C=C(C(=O)OC(C)OC(=O)C(N)C(C)C)CC(NC(=N)N)C1NC(C)=O (mixture of isomers) [GOC-Me-Val]
- MDD ± SD (mean day of death of mice that died prior to day 21) ([2]; 0.1 mg/kg/day): 10.0 ± 1.3
- protective from the lethal infection ([2]; 0.1 mg/kg/day): inactive
- Survivors/Total ([2]; 0.1 mg/kg/day per oral): 0/10
- MDD ± SD (mean day of death of mice that died prior to day 21) ([2]; 1 mg/kg/day): 10.7 ± 0.6
- protective from the lethal infection ([2]; 1 mg/kg/day): 70%
- weight loss during the infection (FIG. 2) ([2]; 1 mg/kg/day): Severe weight loss
- Survivors/Total ([2]; 1 mg/kg/day per oral): 7/10**
- protective from the lethal infection ([2]; 10 mg/kg/day): 100%
- Survivors/Total ([2]; 10 mg/kg/day per oral): 10/10**
- Mean Weight Change Day 5 [3]: −0.2 grams
- Mean Weight Change Day 5, % of initial body weight (in parenthesis) [3]: −0.5%
- Mean Weight Change, day 7 [3]: −0.3 grams
- Mean Weight Change, day 7, % of initial body weight (in parenthesis) [3]: −1.6%
- Survivors/Total [3]: 5/5
- T1/2 (mice, IV, 1 mg/kg): 1.05 h
- AUC (mouse, in vivo, iv, 1 mg/kg): 730 ± 60 ng·h/mL
- CL (mouse, in vivo, iv, 1 mg/kg): 39 mL/h
- Vz (mouse, in vivo, iv, 1 mg/kg): 59.5 mL
- AUC (mouse, in vivo, po, 10 mg/kg): 3205 ± 577 ng·h/mL
- CL (mouse, in vivo, po, 10 mg/kg): 140 mL/h
- Cmax (mouse, in vivo, po, 10 mg/kg): 561 ± 235 ng/mL
- Vz (mouse, in vivo, po, 10 mg/kg): 276 mL

Compound: CCC(CC)O[C@@H]1C=C(C(=O)O)C[C@H](NC(=N)N)[C@H]1NC(C)=O [GOC, 4-guanidinio oseltamivir carboxylate]
- EC50 ([4]; H1N1, MDCK cells, 3 to 4 days): 16 nM
- bioavailability (in vivo; 10 mg/kg, BA (bioavailability of GOC)): 4.3%
- Vd (in vivo; iv, 1 mg/kg): 0.0678 L
- clearance (in vivo; iv, 1 mg/kg): 0.883 mL/min
- AUC (in vivo; iv, 1 mg/kg, mice, GOC in plasma): 541 ± 229 ng·h/mL
- half-life (in vivo; iv, 1 mg/kg, T1/2, mice): 0.88 h
- AUC (in vivo; po, 10 mg/kg): 232 ± 43 ng·h/mL
- Cmax (in vivo; po, 10 mg/kg, Cmax): 43 ± 29 ng/mL
- half-life (in vivo; po, 10 mg/kg, T1/2): 1.21 h
- Tmax (in vivo; po, 10 mg/kg): 3 ± 1.2 h
- Tmax (in vivo; po, 10 mg/kg, mice, PO (fasted), GOC in plasma): 1.3 ± 1 h
- EC50 (Sichuan/379/99; MDCK cells, 3 to 4 days): > 3200 nM
- times more potent in tissue culture of influenza virus replication (influenza virus): 10 times
- EC50 ([5]; H1N1, MDCK cells, 3 to 4 days): 4.2 nM
- EC50 [6]: 0.28 nM
- MDD ± SD (mean day of death of mice that died prior to day 21) ([2]; 0.1 mg/kg/day): 9.0 ± 1.0
- protective from the lethal infection ([2]; 0.1 mg/kg/day): not active
- Survivors/Total ([2]; 0.1 mg/kg/day per oral): 0/10
- MDD ± SD (mean day of death of mice that died prior to day 21) ([2]; 1 mg/kg/day): 9.8 ± 1.2
- protective from the lethal infection ([2]; 1 mg/kg/day): not active
- Survivors/Total ([2]; 1 mg/kg/day per oral): 1/10
- protective from the lethal infection ([2]; 10 mg/kg/day): 100%
- weight loss during the infection (FIG. 2) ([2]; 10 mg/kg/day): Some weight loss
- Survivors/Total ([2]; 10 mg/kg/day per oral): 10/10**
- EC50 (Brisbane/10/2007 (H3N2); H3N2, MDCK cells, 3 to 4 days): > 320 nM
- EC50 [7]: 1.2 nM
- EC50 (Victoria/3/75 (H3N2); H3N2, MDCK cells, 3 to 4 days): 38 nM
- oral bioavailability ([1]; oral): ~4.0%
- Mean Weight Change Day 5 [3]: −0.3 grams
- Mean Weight Change Day 5, % of initial body weight (in parenthesis) [3]: −2.1%
- Mean Weight Change, day 7 [3]: −0.2 grams
- Mean Weight Change, day 7, % of initial body weight (in parenthesis) [3]: −1.0%
- EC50 (Brisbane/59/2007 (H1N1); H1N1, MDCK cells, 3 to 4 days): 4 nM
- EC50 (NWS/33 (H1N1); H1N1, MDCK cells, 3 to 4 days): < 32 nM
- EC50 (Flu B Florida/4/2006; MDCK cells, 3 to 4 days): 460 nM
- AUC (mouse, in vivo, po, 10 mg/kg): 327 ± 98 ng·h/mL
- Cmax (mouse, in vivo, po, 10 mg/kg): 73 ± 30 ng/mL
- T1/2 (mouse, in vivo, po, 10 mg/kg): 1.65 h

Compound: CCC(CC)O[C@@H]1C=C(C(=O)O)C[C@H](N)[C@H]1NC(C)=O [Oseltamivir Carboxylate, Oseltamivir carboxylate]
- EC50 ([4]; H1N1, MDCK): 300 nM
- EC50 (Sichuan/379/99; MDCK): > 3200 nM
- EC50 ([5]; H1N1, MDCK): > 320 nM
- EC50 [6]: 2.8 nM
- EC50 (Brisbane/10/2007 (H3N2); H3N2, MDCK): > 320 nM
- EC50 [7]: 150 nM
- EC50 (Victoria/3/75 (H3N2); H3N2, MDCK): > 320 nM
- oral bioavailability ([1]; oral): ~4.0%
- EC50 (Brisbane/59/2007 (H1N1); H1N1, MDCK): > 320 nM
- EC50 (NWS/33 (H1N1); H1N1, MDCK): 580 nM
- EC50 (Flu B Florida/4/2006; MDCK): > 3200 nM

Compound: CCOC(=O)C1=C[C@@H](OC(CC)CC)[C@H](NC(C)=O)[C@@H](N)C1 [Oseltamivir]
- MDD ± SD (mean day of death of mice that died prior to day 21) ([2]; 0.1 mg/kg/day): 9.7 ± 1.6
- protective from the lethal infection ([2]; 0.1 mg/kg/day): ineffective
- Survivors/Total ([2]; 0.1 mg/kg/day per oral): 0/10
- protective from the lethal infection ([2]; 1 mg/kg/day): 100%
- weight loss during the infection (FIG. 2) ([2]; 1 mg/kg/day): lost minimal weight
- Survivors/Total ([2]; 1 mg/kg/day per oral): 10/10**
- protective from the lethal infection ([2]; 10 mg/kg/day): 100%
- Survivors/Total ([2]; 10 mg/kg/day per oral): 10/10**
- Survivors/Total ([3]; BALB/c): 5/5
- Mean Weight Change Day 5 [3]: −0.3 grams
- Mean Weight Change Day 5, % of initial body weight (in parenthesis) [3]: −1.6%
- Mean Weight Change, day 7 [3]: −0.1 grams
- Mean Weight Change, day 7, % of initial body weight (in parenthesis) [3]: −0.5%

Compound: CC(=O)N[C@H]1[C@H]([C@H](O)[C@H](O)CO)OC(C(=O)OC(OC(=O)[C@H](N)C(C)C)C(C)C)=C[C@@H]1NC(=N)N (stereo partly drawn) [ZAN-Isp-Val]
- AUC ([8]; Oral, fasted mice, Zanamivir in plasma): 2177 (ng/ml) × hr
- absorption after oral dosing ([8]; fasted animals): completely absorbed

Compound: CC(=O)N[C@H]1[C@H]([C@H](O)[C@H](O)CO)OC(C(=O)O)=C[C@@H]1N=C(N)N [Zanamivir]
- Plasma concentration of Zanamivir ([8]; 0.03 hours): 4018.3 ng/mL
- Plasma concentration of Zanamivir ([8]; 0.08 hours): 2487.5 ng/mL
- Plasma concentration of Zanamivir ([8]; 0.25 hours): 633.8 ng/mL
- Plasma concentration of Zanamivir ([8]; 0.50 hours): 212.0 ng/mL
- Plasma concentration of Zanamivir ([8]; 1.00 hours): 78.6 ng/mL
- Plasma concentration of Zanamivir ([8]; 2.00 hours): 14.0 ng/mL
- AUC ([8]; mouse, in vivo, iv, 1 mg/kg): 202.4 (ng/ml) × hr
- oral bioavailability ([1]; in vivo, po): about 2%
